Experimental data reported in ChEMBL document CHEMBL1687752, “Impact of antifungal prophylaxis on colonization and azole susceptibility of Candida species” (2009).
≈ marks a conversion by molar mass, not a printed value.

Key:
Format in all cases: functional
[1] = test system: Pichia kudriavzevii; experiment: Antifungal activity against 14 days cultured Candida krusei isolated from neutropenic subject with AML or MDS pharynx after 12 days of prophylaxis by broth microdilution method
[2] = test system: Candida tropicalis; experiment: Antifungal activity against 9 days cultured Candida tropicalis isolated from neutropenic subject with AML or MDS stool receiving antifungal therapy for 45 days after 24 days of prophylaxis by broth microdilution method
[3] = test system: Nakaseomyces glabratus; experiment: Antifungal activity against 29 days cultured Candida glabrata isolated from neutropenic subject with AML or MDS pharynx after 48 days of prophylaxis by broth microdilution method
[4] = test system: Nakaseomyces glabratus; experiment: Antifungal activity against Candida glabrata isolated from neutropenic subjects with AML or MDS prior to initiation of posaconazole therapy by broth microdilution method
[5] = test system: Nakaseomyces glabratus; experiment: Antifungal activity against 25 days cultured Candida glabrata isolated from invasive fungal infected subject blood receiving antifungal therapy for 25 days after 3 days of prophylaxis by broth microdilution method
[6] = test system: Nakaseomyces glabratus; experiment: Antifungal activity against Candida glabrata isolated from HSCT recipient 186 with acute or chronic GVHD mouth receiving antifungal drug after 112 days prophylaxis by broth microdilution method
[7] = test system: Nakaseomyces glabratus; experiment: Antifungal activity against Candida glabrata isolated from HSCT recipient 491 with acute or chronic GVHD mouth receiving antifungal drug after 112 days prophylaxis by broth microdilution method
[8] = test system: Nakaseomyces glabratus; experiment: Antifungal activity against 31 days cultured Candida glabrata isolated from HSCT recipient with acute or chronic GVHD mouth receiving antifungal therapy for 31 days after 28 days of prophylaxis by broth microdilution method
[9] = test system: Candida albicans; experiment: Antifungal activity against Candida albicans isolated from neutropenic subjects with AML or MDS prior to initiation of posaconazole therapy by broth microdilution method
[10] = test system: Candida albicans; experiment: Antifungal activity against Candida albicans isolated from neutropenic subjects with AML or MDS receiving posaconazole by broth microdilution method
[11] = test system: Nakaseomyces glabratus; experiment: Antifungal activity against Candida glabrata isolated from HSCT recipient 497 with acute or chronic GVHD mouth receiving antifungal drug after 114 days prophylaxis by broth microdilution method
[12] = test system: Candida albicans; experiment: Antifungal activity against Candida albicans isolated from HSCT recipients with acute or chronic GVHD receiving posaconazole assessed as maximum MIC by broth microdilution method
[13] = test system: Candida albicans; experiment: Antifungal activity against Candida albicans isolated from neutropenic subjects with AML or MDS prior to initiation of fluconazole therapy assessed as maximum MIC by broth microdilution method
[14] = test system: Nakaseomyces glabratus; experiment: Antifungal activity against 88 days cultured Candida glabrata isolated from HSCT recipient with acute or chronic GVHD mouth receiving antifungal therapy for 75 days after 33 days of prophylaxis by broth microdilution method
[15] = test system: Nakaseomyces glabratus; experiment: Antifungal activity against Candida glabrata isolated from HSCT recipients with acute or chronic GVHD prior to initiation of posaconazole therapy assessed as maximum MIC by broth microdilution method
[16] = test system: Nakaseomyces glabratus; experiment: Antifungal activity against Candida glabrata isolated from HSCT recipient 807 with acute or chronic GVHD mouth receiving antifungal drug after 114 days prophylaxis by broth microdilution method
[17] = test system: Nakaseomyces glabratus; experiment: Antifungal activity against 60 days cultured Candida glabrata isolated from HSCT recipient with acute or chronic GVHD mouth receiving antifungal therapy for 75 days after 33 days of prophylaxis by broth microdilution method
[18] = test system: Nakaseomyces glabratus; experiment: Antifungal activity against Candida glabrata isolated from neutropenic subject 1497 with AML or MDS pharynx after 61 days prophylaxis by broth microdilution method
[19] = test system: Nakaseomyces glabratus; experiment: Antifungal activity against 7 days cultured Candida glabrata isolated from neutropenic subject with AML or MDS stool receiving antifungal therapy for 37 days after 9 days of prophylaxis by broth microdilution method
[20] = test system: Candida tropicalis; experiment: Antifungal activity against 2 days cultured Candida tropicalis isolated from neutropenic subject with AML or MDS pharynx receiving antifungal therapy for 45 days after 24 days of prophylaxis by broth microdilution method
[21] = test system: Nakaseomyces glabratus; experiment: Antifungal activity against Candida glabrata isolated from HSCT recipients with acute or chronic GVHD receiving fluconazole by broth microdilution method
[22] = test system: Candida albicans; experiment: Antifungal activity against Candida albicans isolated from HSCT recipient 301 with acute or chronic GVHD mouth receiving antifungal drug after 114 days prophylaxis by broth microdilution method
[23] = test system: Nakaseomyces glabratus; experiment: Antifungal activity against 10 days cultured Candida glabrata isolated from neutropenic subject with AML or MDS stool receiving antifungal therapy for 37 days after 9 days of prophylaxis by broth microdilution method
[24] = test system: Candida albicans; experiment: Antifungal activity against Candida albicans isolated from neutropenic subjects with AML or MDS prior to initiation of fluconazole therapy by broth microdilution method
[25] = test system: Nakaseomyces glabratus; experiment: Antifungal activity against 15 days cultured Candida glabrata isolated from HSCT recipient with acute or chronic GVHD mouth receiving antifungal therapy for 168 days after 113 days of prophylaxis by broth microdilution method
[26] = test system: Candida albicans; experiment: Antifungal activity against Candida albicans isolated from HSCT recipients with acute or chronic GVHD prior to initiation of fluconazole therapy by broth microdilution method
[27] = test system: Candida albicans; experiment: Antifungal activity against Candida albicans isolated from HSCT recipient 042 with acute or chronic GVHD mouth after 112 days prophylaxis by broth microdilution method
[28] = test system: Nakaseomyces glabratus; experiment: Antifungal activity against Candida glabrata isolated from neutropenic subjects with AML or MDS receiving fluconazole assessed as maximum MIC by broth microdilution method
[29] = test system: Nakaseomyces glabratus; experiment: Antifungal activity against Candida glabrata isolated from neutropenic subjects with AML or MDS prior to initiation of posaconazole therapy assessed as maximum MIC by broth microdilution method
[30] = test system: Nakaseomyces glabratus; experiment: Antifungal activity against Candida glabrata isolated from neutropenic subject 1187 with AML or MDS stool receiving antifungal drug after 22 days prophylaxis by broth microdilution method; conditions: 528 h
[31] = test system: Nakaseomyces glabratus; experiment: Antifungal activity against Candida glabrata isolated from HSCT recipients with acute or chronic GVHD receiving posaconazole assessed as maximum MIC by broth microdilution method
[32] = test system: Nakaseomyces glabratus; experiment: Antifungal activity against Candida glabrata isolated from HSCT recipients with acute or chronic GVHD prior to initiation of fluconazole therapy assessed as maximum MIC by broth microdilution method
[33] = test system: Candida albicans; experiment: Antifungal activity against Candida albicans isolated from HSCT recipient 262 with acute or chronic GVHD mouth receiving antifungal drug after 115 days prophylaxis by broth microdilution method
[34] = test system: Pichia kudriavzevii; experiment: Antifungal activity against Candida krusei isolated from HSCT recipients with acute or chronic GVHD prior to initiation of fluconazole therapy assessed as maximum MIC by broth microdilution method
[35] = test system: Nakaseomyces glabratus; experiment: Antifungal activity against 16 days cultured Candida glabrata isolated from HSCT recipient with acute or chronic GVHD mouth receiving antifungal therapy for 31 days after 28 days of prophylaxis by broth microdilution method
[36] = test system: Nakaseomyces glabratus; experiment: Antifungal activity against Candida glabrata isolated from neutropenic subject 1497 with AML or MDS pharynx receiving antifungal drug after 61 days prophylaxis by broth microdilution method
[37] = test system: Nakaseomyces glabratus; experiment: Antifungal activity against 42 days cultured Candida glabrata isolated from neutropenic subject with AML or MDS stool after 48 days of prophylaxis by broth microdilution method
[38] = test system: Nakaseomyces glabratus; experiment: Antifungal activity against 56 days cultured Candida glabrata isolated from HSCT recipient with acute or chronic GVHD mouth receiving antifungal therapy for 172 days after 114 days of prophylaxis by broth microdilution method

OC(Cn1cncn1)(Cn1cncn1)c1ccc(F)cc1F [FLUCONAZOLE]
MIC [1]: 64 µg/mL (≈ 209 µM)
MIC [2]: 0.5 µg/mL (≈ 1.63 µM)
MIC [3]: > 64 µg/mL
MIC50 [4]: 4 µg/mL (≈ 13.1 µM)
MIC90 [4]: 16 µg/mL (≈ 52.2 µM)
MIC [5]: 8 µg/mL (≈ 26.1 µM)
MIC [6]: 32 µg/mL (≈ 104 µM)
MIC [7]: 32 µg/mL (≈ 104 µM)
MIC [8]: < 4 µg/mL
MIC50 [9]: 0.25 µg/mL (≈ 0.816 µM)
MIC90 [9]: 0.25 µg/mL (≈ 0.816 µM)
MIC50 [10]: 0.25 µg/mL (≈ 0.816 µM)
MIC90 [10]: 0.25 µg/mL (≈ 0.816 µM)
MIC [11]: 32 µg/mL (≈ 104 µM)
MIC [12]: 64 µg/mL
MIC [13]: 1 µg/mL
MIC [14]: > 64 µg/mL
MIC [15]: 64 µg/mL
MIC [16]: 128 µg/mL (≈ 418 µM)
MIC [17]: > 64 µg/mL
MIC [18]: 2 µg/mL (≈ 6.53 µM)
MIC [19]: 8 µg/mL (≈ 26.1 µM)
MIC [20]: 0.25 µg/mL (≈ 0.816 µM)
MIC50 [21]: 32 µg/mL (≈ 104 µM)
MIC90 [21]: 64 µg/mL (≈ 209 µM)
MIC [22]: 0.25 µg/mL (≈ 0.816 µM)
MIC [23]: 8 µg/mL (≈ 26.1 µM)
MIC50 [24]: 0.125 µg/mL (≈ 0.408 µM)
MIC90 [24]: 0.25 µg/mL (≈ 0.816 µM)
MIC [25]: 64 µg/mL (≈ 209 µM)
MIC50 [26]: 0.25 µg/mL (≈ 0.816 µM)
MIC90 [26]: 1 µg/mL (≈ 3.27 µM)
MIC [27]: < 0.125 µg/mL
MIC [28]: 16 µg/mL
MIC [29]: 32 µg/mL
MIC [30]: 32 µg/mL (≈ 104 µM)
MIC [31]: 64 µg/mL
MIC [32]: 64 µg/mL
MIC [33]: 2 µg/mL (≈ 6.53 µM)
MIC [34]: 64 µg/mL
MIC [35]: < 2 µg/mL
MIC [36]: > 64 µg/mL
MIC [37]: 8 µg/mL (≈ 26.1 µM)
MIC [38]: 4 µg/mL (≈ 13.1 µM)
